In PubChem BioAssay (NCI):
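Method: 48-hour compound exposure of cells in 96-well plates, five concentrations, linear interpolation of endpoints. TGI marks complete inhibition of growth.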

What was measured:
Assay in all cases: NCI-60 cell line screen, 48 h
[1] = system: COLO 205 colon
[2] = system: HOP-62 NSCLC
[3] = system: MDA-MB-435
[4] = system: UACC-257 melanoma
[5] = system: HOP-92 NSCLC
[6] = system: UACC-62 melanoma
[7] = system: EKVX NSCLC
[8] = system: MDA-MB-231 breast
[9] = system: K-562 leukemia
[10] = system: SK-MEL-28 melanoma

Compound | TGI [1] [µM] | TGI [2] [µM] | TGI [3] [µM] | TGI [4] [µM] | TGI [5] [µM] | TGI [6] [µM] | TGI [7] [µM] | TGI [8] [µM] | TGI [9] [µM] | TGI [10] [µM]
COc1ccc(NC(=O)CSC(=O)c2ccccc2)c(SCCSSCCSc2cc(OC)ccc2NC(=O)CSC(=O)c2ccccc2)c1 | 24.2 | > 100 | > 100 | > 100 | > 100 | > 100 | > 100 | – | – | –
O=C(O)C(Cc1ccccc1)Cc1ccccc1 | > 100 | > 100 | > 100 | > 100 | – | > 100 | > 100 | > 100 | > 100 | > 100
Clc1ccc(C2SCc3nc4ccccc4n32)cc1 (configuration not stated) | 36.8 | – | – | – | 22.3 | 43.6 | > 100 | – | > 100 | 68.1
C=C(C)C1(Sc2ccc(OC)cc2)CC1 | 60.1 | > 100 | 44 | 55.7 | – | > 100 | > 100 | > 100 | > 100 | > 100
N#CC1=C(O)NC(O)=C(C#N)C1c1c(Cl)cccc1Cl | > 100 | 67.8 | – | > 100 | 43.9 | > 100 | > 100 | – | > 100 | > 100
O=[N+]([O-])c1c(O)c2nonc2c2nn(-c3ccccc3)nc12 | > 100 | > 100 | > 100 | > 100 | > 100 | > 100 | > 100 | – | > 100 | > 100
CCOC(=O)Cc1[nH]c(C(=O)c2ccccc2)cc1C(=O)c1ccccc1 | 48.7 | 51.7 | 66 | > 10 | – | > 100 | > 100 | > 10 | > 10 | > 10
COc1ccc(C(C2=C(O)CC(C)OC2=O)C2=C(O)CC(C)OC2=O)cc1 (configuration not stated) | > 100 | > 100 | – | > 100 | – | > 100 | > 100 | – | > 100 | > 100
CC(C)(C)OC(=O)N1C(=O)C2CCCC21 (configuration not stated) | > 100 | > 100 | > 100 | > 100 | > 100 | > 100 | – | > 100 | – | > 100
CCCCCCc1ccc(CCCCCCCC(=O)O)o1 | > 100 | > 100 | > 100 | > 100 | > 100 | – | > 100 | – | 71.6 | > 100
CCOC(=O)c1nc2ccccc2nc1Nc1ccc(C(=O)OC)s1 | > 100 | > 100 | > 100 | > 100 | > 100 | > 100 | > 100 | > 100 | – | > 100
CCOC(=O)c1sc2nc(SC)nc3c2c1NCN3C | > 100 | 47.2 | > 100 | > 100 | 27.9 | > 100 | – | 92.5 | – | > 100
